Reference: patent US20220054469A1, “FARNESOID X RECEPTOR AGONISTS AND USES THEREOF” (Metacrine, Inc., priority 2018, published 2022)
pEC50: −log10 of the molar value.

Target: T1, hFXR (Homo sapiens, UniProt Q96RI1)
T1 construct: expressed in transfected cells; host or cells: CV-1 cells
T1 sequence (Q96RI1 1-486): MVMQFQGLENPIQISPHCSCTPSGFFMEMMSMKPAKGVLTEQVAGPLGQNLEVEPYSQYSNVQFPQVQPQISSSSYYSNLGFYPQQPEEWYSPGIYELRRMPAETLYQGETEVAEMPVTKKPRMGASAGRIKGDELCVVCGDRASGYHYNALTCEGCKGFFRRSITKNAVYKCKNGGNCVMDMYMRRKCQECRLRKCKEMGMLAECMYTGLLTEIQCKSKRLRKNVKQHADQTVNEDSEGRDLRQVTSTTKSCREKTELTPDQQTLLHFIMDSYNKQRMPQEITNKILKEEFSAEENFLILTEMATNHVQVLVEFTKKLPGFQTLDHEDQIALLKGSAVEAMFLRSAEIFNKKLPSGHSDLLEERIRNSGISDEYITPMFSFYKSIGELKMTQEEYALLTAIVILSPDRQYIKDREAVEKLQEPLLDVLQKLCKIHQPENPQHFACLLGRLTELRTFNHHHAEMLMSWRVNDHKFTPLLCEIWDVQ
T1 sequence (P19793 1-462 partner): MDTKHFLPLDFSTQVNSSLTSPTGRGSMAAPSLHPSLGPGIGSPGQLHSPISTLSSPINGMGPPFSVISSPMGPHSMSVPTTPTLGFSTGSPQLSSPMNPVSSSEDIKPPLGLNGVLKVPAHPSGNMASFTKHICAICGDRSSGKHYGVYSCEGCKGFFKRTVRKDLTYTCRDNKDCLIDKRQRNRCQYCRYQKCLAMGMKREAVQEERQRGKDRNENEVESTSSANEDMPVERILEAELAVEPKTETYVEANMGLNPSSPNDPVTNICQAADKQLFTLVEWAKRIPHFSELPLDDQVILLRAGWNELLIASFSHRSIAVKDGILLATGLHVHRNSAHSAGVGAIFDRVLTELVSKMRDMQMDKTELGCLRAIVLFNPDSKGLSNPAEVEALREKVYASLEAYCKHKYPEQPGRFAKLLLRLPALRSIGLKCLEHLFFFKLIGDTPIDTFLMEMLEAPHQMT
Assay: In Vitro FXR Assay (TK)
Format: cell-based
Conditions: CV-1 cells transfected with hFXR, hRXR, TK-ECRE-luc and pCMX-YFP; incubated with compound for 18 hrs; luminescence
Summary of the method: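 CV-1 cells transiently cotransfected with hFXR, hRXR, TK-ECRE-luc reporter and pCMX-YFP plasmids in charcoal-stripped serum medium. Serially diluted compounds added for 18 h at 37° C., then cells lysed and luciferase luminescence measured.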

pEC50: ≥ 7.30
Compound: COc1ncc(C23CCC(CN(c4cccc(-c5cnn(C(C)C)c5)c4)C(=O)[C@H]4CC[C@H](CC(=O)O)CC4)(CC2)CC3)cc1C [Compound 4.11, trans-2-(4-((3-(1-Isopropyl-1H-pyrazol-4-yl)phenyl)((4-(6-methoxy-5-methylpyridin-3-yl)bicyclo[2.2.2]octan-1-yl)methyl)carbamoyl)cyclohexyl)acetic acid]
